Test results from EP4800018A1, “PAN-KRAS INHIBITOR AND USE THEREOF IN MEDICINES” (Betta Pharmaceuticals Co., Ltd., priority 2023, dated 2025).
Where two headings read alike, the source gives them in different places.

How the values were obtained:
Type in all cases: cell-based
KRAS G12V-cRAF = target: T1, KRAS G12V-cRAF (Homo sapiens, UniProt P01116, G12V); assay: Cellular KRAS G12V-cRAF Binding Inhibition Assay (NanoBRET, AD293 stable cells); conditions: 3 h incubation, read-out: NanoBRET KRAS G12V
T1 construct: expressed in transfected cells
T1 sequence (P01116 1-188 isoform P01116-2 G12V): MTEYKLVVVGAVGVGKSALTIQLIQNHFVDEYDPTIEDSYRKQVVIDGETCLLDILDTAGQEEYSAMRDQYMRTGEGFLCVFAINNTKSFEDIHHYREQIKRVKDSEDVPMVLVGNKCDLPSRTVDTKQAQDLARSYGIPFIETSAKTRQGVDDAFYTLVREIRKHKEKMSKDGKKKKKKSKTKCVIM
Procedure, shortened: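 Live AD293 stable cells, NanoLuc donor with HaloTag NanoBRET 618 ligand acceptor added overnight. Inhibition percent from luminescence relative to max signal and medium blank; IC50 from curve fitting.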

[1] = test system: KRAS-G12D mutant tumor cells AGS; assay: Cell Proliferation Inhibition Assay (AGS), Cell-titer GLO, 96 h; conditions: read-out: AGS(G12D)
Procedure, shortened: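 AGS cells (KRAS-G12D) grown in low-attachment plates were exposed to compound for 96 h at 37°C. Viability was read by CellTiter-Glo luminescence and converted to % inhibition against max and blank wells. IC50 came from curve fitting.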

[2] = test system: KRAS-G12V mutant tumor cells SW620; assay: Cell Proliferation Inhibition Assay (SW620), Cell-titer GLO, 96 h; conditions: read-out: SW620(G12V)
Procedure, shortened: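 SW620 cells (1×10^3/well, low-attachment) were exposed to compound from 10000 to 0.03 nM (0.5% DMSO) for 96 h at 37°C. Viability was read by Cell-titer GLO luminescence. Inhibition was calculated relative to DMSO and blank wells, and IC50 obtained by curve fitting.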

KRAS G12D-cRAF = target: T2, KRAS G12D-cRAF (Homo sapiens, UniProt P01116, G12D); assay: Cellular KRAS G12D-cRAF Binding Inhibition Assay (NanoBRET, AD293 stable cells); conditions: 3 h incubation, read-out: NanoBRET KRAS G12D
T2 construct: expressed in transfected cells
T2 sequence (P01116 1-188 isoform P01116-2 G12D): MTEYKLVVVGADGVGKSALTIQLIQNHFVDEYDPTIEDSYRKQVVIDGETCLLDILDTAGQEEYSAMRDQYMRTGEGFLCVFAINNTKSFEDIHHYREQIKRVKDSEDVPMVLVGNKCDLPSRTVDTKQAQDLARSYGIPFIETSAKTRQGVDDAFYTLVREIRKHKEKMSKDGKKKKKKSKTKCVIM
Procedure, shortened: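 AD293 cells stably expressing KRAS G12D-NanoLuc and cRAF RBD-HaloTag were seeded at 1×10^4 cells/well with NanoBRET 618 ligand overnight. BRET signal was converted to % inhibition of binding relative to max and blank wells, and IC50 came from curve fitting.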

[3] = Homo sapiens, AGS, 96 h, AGS cells, 96 h incubation, Cell-titer GLO
[4] = Homo sapiens, SW-620, 96 h, SW620 cells, 96 h incubation, Cell-titer GLO

Structure (SMILES)	IC50 (KRAS G12V-cRAF) [nM]	IC50 ([1]; AGS cells, 96 h incubation, Cell-titer GLO) [nM]	IC50 ([2]; SW620 cells, 96 h incubation, Cell-titer GLO) [nM]	IC50 (KRAS G12D-cRAF) [nM]	IC50 [1, 3] [nM]	IC50 [2, 4] [nM]	IC50 ([1]; Homo sapiens, AGS, 96 h) [nM]	IC50 ([2]; Homo sapiens, SW-620, 96 h) [nM]
CC1OCCCn2c(c3c4cc(ccc42)-c2csc(n2)CC(NC(=O)C2CC2C(F)F)C(=O)N2CCCC(N2)C(=O)OCC(C)(C)C3)-c2cc(N3CCC(F)(F)CC3)cnc21 [Example 114, (1S,2S)-2-(difluoromethyl)-N-((1^5S,6^3S,4S,Z)-1^2-(4,4-difluoropiperidin-1-yl)-1^5,10,10-trimethyl-5,7-dioxo-1^8,1^9,6^1,6^2,6^3,6^4,6^5,6^6-octahydro-1^5H, 1^7H-8-oxa-1(13,15)-pyrido[3',2':7,8][1,5]oxazonino[5,6-alindola-2(4,2)-thiazola-6(1,3)-pyridazinacycloundecaphane-4-yl)cyclopropane-1-carbox amide]	65.8			19.4	15.7	3.4		
CC1OCCCn2c(c3c4cc(ccc42)-c2csc(n2)CC(NC(=O)C2CC2C(F)F)C(=O)N2CCCC(N2)C(=O)OCC(C)(C)C3)-c2cc(N3CC(N4CCN(C)CC4)C3)cnc21 [Example 99, (1S,2S)-2-(difluoromethyl)-N-((1^5S,6^3S,4S,Z)-1^5,10,10-trimethyl-1^2-(3-(4-methylpiperazin-1-yl)azetidin-1-yl)-5,7-dioxo-1^8,1^9,6^1,6^2,6^3,6^4,6^5,6^6-octahydro-1^5H,1^7H-8-oxa-1(13,15)-pyrido[3',2':7, 8][1,5]oxazonino[5,6-a]indola-2(4,2)-thiazola-6(1,3)-pyridazinacycloundecaphane-4-yl)cyclopro pane-1-carboxamide]	13.3			4.25			0.74	0.14
COC1CCN(c2cnc3c(c2)-c2c4c5cc(ccc5n2CCCOC3C)-c2csc(n2)CC(NC(=O)C2CC2C(F)F)C(=O)N2CCCC(N2)C(=O)OCC(C)(C)C4)CC1 [Example 113, (1S,2S)-2-(difluoromethyl)-N-((1^5S,6^3S,4S,Z)-1^2-(4-methoxypiperidin-1-yl)-1^5,10,10-trimethyl-5,7-dioxo-1^8,1^9,6^1,6^2,6^3,6^4,6^5,6^6-octahydro-1^5H, 1^7H-8-oxa-1(13,15)-pyrido[3',2':7,8][1,5]oxazonino[5,6-alindola-2(4,2)-thiazola-6(1,3)-pyridazinacycloundecaphane-4-yl)cyclopropane-1-carbox amide]	23.9			7.1	3.6	0.54		
COCCN1CCN(c2cnc3c(c2)-c2c4c5cc(ccc5n2CCCOC3C)-c2csc(n2)CC(NC(=O)C23CC(C)(C2)C3)C(=O)N2CCCC(N2)C(=O)OCC(C)(C)C4)CC1 [Example 38, N-((1^5S,6^3S,4S,Z)-1^2-(4-(2-methoxyethyl)piperazin-1-yl)-1^5,10,10-trimethyl-5,7-dioxo-1^8,1^9,6^1,6 ^2,6^3,6^4,6^5,6^6-octahydro-1^5H,1^7H-8-oxa-1(13,15)-pyrido[3',2':7,8][1,5]oxazonino[5,6-a]indola-2(4 ,2)-thiazola-6(1,3)-pyridazinacycloundecaphane-4-yl)-3-methylbicyclo[1.1.1]pentane-1-carboxamide]	31.9			8.6	4.2	1.72		

Further lines, with some results ahead:

IC50 (KRAS G12V-cRAF) [nM]	IC50 ([1]; AGS cells, 96 h incubation, Cell-titer GLO) [nM]	IC50 ([2]; SW620 cells, 96 h incubation, Cell-titer GLO) [nM]	IC50 (KRAS G12D-cRAF) [nM]	IC50 [1, 3] [nM]	IC50 [2, 4] [nM]	Structure (SMILES)	IC50 ([1]; Homo sapiens, AGS, 96 h) [nM]	IC50 ([2]; Homo sapiens, SW-620, 96 h) [nM]
10.6	2.2	0.7	2.39			COC1CCN(c2cnc3c(c2)-c2c4c5cc(ccc5n2CCCOC3C)-c2csc(n2)CC(NC(=O)C2CC2C(F)F)C(=O)N2CCCC(N2)C(=O)OCC(C)(C)C4)C1 [Example 135, (1S,2S)-2-(difluoromethyl)-N-((1^5S,6^3S,4S,Z)-1^2-((R)-3-methoxypyrrolidin-1-yl)-1^5,10,10-trimethyl-5,7-dioxo-1^8, 1^9,6^1 ,6^2,6^3,6^4,6^5 ,6^6-octahydro-1^5H,1^7H-8-oxa-1(13,15)-pyrido[3',2':7,8][1,5]oxazonino[5,6-a]indola-2(4,2)-thiazola-6(1,3)-pyridazinacycloundecaphane-4-yl)cyclopropane-1-car boxamide]		
6.7			2.02	1.1	0.32	CC1OCCCn2c(c3c4cc(ccc42)-c2csc(n2)CC(NC(=O)C24CC(C)(C2)C4)C(=O)N2CCCC(N2)C(=O)OCC(C)(C)C3)-c2cc(N3CC(C)N(C)C(C)C3)cnc21 [Example 172, 3-methyl-N-((1^5S,6^3S,4S,Z)-1^5,10,10-trimethyl-5,7-dioxo-1^2-((3S,5S)-3,4,5-trimethylpiperazin-1-y)-1^8,1^9,6^1,6^2,6^3,6^4,6^5,6^6-octahydro-1^5H,1^7H-8-oxa-1(13,15)-pyrido[3',2':7,8][1,5]oxazonino[5,6-a]indola-2(4,2)-thiazola-6(1,3)-pyridazinacycloundecaphane-4-yl)bicyclo[1.1.1]pentane-1-carb oxamide]		
4.52			0.92	0.71	0.24	CCN1CCN(c2cnc3c(c2)-c2c4c5cc(ccc5n2CC(C)COC3C)-c2csc(n2)CC(NC(=O)C2CC2C(F)F)C(=O)N2CCCC(N2)C(=O)OCC(C)(C)C4)CC1 [Example 161, (1S,2S)-2-(difluoromethyl)-N-((1^5S,1^8R,6^3S,4S,Z)-1^2-(4-ethylpiperazin-1-yl)-1^5,1^8,10,10-tetramethyl-5,7-dioxo-1^8,1^9,6^1,6^2,6^3,6^4,6^5,6^6-octahydro-1^5H,1^7H-8-oxa-1(13,15)-pyrido[3',2':7,8][1,5]oxazonino[5,6-a]indola-2(4,2)-thiazola-6(1,3)-pyridazinacycloundecaphane-4-yl)cyclopropane-1-c arboxamide]		
9.3			1.8	0.38	0.14	CC1OCCCn2c(c3c4cc(ccc42)-c2csc(n2)CC(NC(=O)C2CC2C(F)F)C(=O)N2CCCC(N2)C(=O)OCC(C)(C)C3)-c2cc(N3CC(C)N(C)C(C)C3)cnc21 [Example 140, (1S,2S)-2-(difluoromethyl)-N-((1^5S,6^3S,4S,Z)-1^5,10,10-trimethyl-5,7-dioxo-1^2-((3S,5R)-3,4,5-trimethylpiperazin-1-yl)-1^8,1^9,6^1,6^2,6^3,6^4,6^5,6^6-octahydro-1^5H,1^7H-8-oxa-1(13,15)-pyrido[3',2':7,8] [1,5]oxazonino[5,6-a]indola-2(4,2)-thiazola-6(1,3)-pyridazinacycloundecaphane-4-yl)cyclopropane-1-carboxamide]		
5.06			1.01	0.58	0.11	CC1OCCCn2c(c3c4cc(ccc42)-c2csc(n2)CC(NC(=O)C2C(C)C2C)C(=O)N2CCCC(N2)C(=O)OCC(C)(C)C3)-c2cc(OCCN3CCOCC3)cnc21 [Example 158, (1r,2R,3S)-2,3-dimethyl-N-((1^5S,6^3S,4S,Z)-1^5,10,10-trimethyl-1^2-(2-morpholinoethoxy)-5,7-dioxo-1^8,1^9,6^1,6^26^3,6^4,6^5,6^6-octahydro-1^5H,1^7H-8-oxa-1(13,15)-pyrido[3',2':7,8][1,5]oxazonino[5,6-a]indola-2(4,2)-thiazola-6(1,3)-pyridazinacycloundecaphane-4-yl)cyclopropane-1-carboxamide]		
